{
  "source": "paper PMC7217186",
  "about": "(The Febs Journal, 2019)",
  "target": "T1, TKS (tetraketide synthase) (Cannabis sativa, UniProt B1Q2B6)",
  "T1 construct": "gene OLS; codon-optimised gene in pETM11, N-terminal TEV-cleavable His6 tag, cut from wild type after purification; E. coli BL21(DE3); dimer (two dimers in asymmetric unit); Cys157 oxidised to sulfinic acid in crystal",
  "T1 sequence (B1Q2B6 2-385)": "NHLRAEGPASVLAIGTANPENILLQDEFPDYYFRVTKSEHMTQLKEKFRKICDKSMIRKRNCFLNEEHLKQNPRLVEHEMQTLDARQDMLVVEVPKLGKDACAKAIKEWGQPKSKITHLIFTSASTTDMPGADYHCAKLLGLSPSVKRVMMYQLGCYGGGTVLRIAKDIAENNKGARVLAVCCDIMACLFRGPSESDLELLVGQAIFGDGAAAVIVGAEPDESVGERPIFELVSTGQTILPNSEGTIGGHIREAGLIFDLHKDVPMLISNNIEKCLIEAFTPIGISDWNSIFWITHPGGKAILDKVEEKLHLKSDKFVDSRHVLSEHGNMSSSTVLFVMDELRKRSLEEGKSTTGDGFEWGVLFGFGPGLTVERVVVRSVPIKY",
  "test": "LC-MS of products (olivetol, PDAL, HTAL)",
  "type": "biochemical",
  "details": "10 μM hexanoyl-CoA, 30 μM malonyl-CoA, 10 μM enzyme, 25 mM Tris pH 8, 150 mM NaCl, 5% glycerol, 25 °C, overnight",
  "data": [
    {"smiles": "CCCCCC(=O)SCCNC(=O)CCNC(=O)[C@H](O)C(C)(C)COP(=O)(O)OP(=O)(O)OC[C@H]1O[C@@H](n2cnc3c(N)ncnc32)[C@H](O)[C@@H]1OP(=O)(O)O", "note": "[hexanoyl-CoA]", "values": [
      {"measurement": "LC-MS of products (olivetol, PDAL, HTAL)", "value": "A major product generated by TKS with malonyl‐CoA and hexanoyl‐CoA was identified as olivetol"}
    ]},
    {"smiles": "CC(C)(COP(=O)(O)OP(=O)(O)OC[C@H]1O[C@@H](n2cnc3c(N)ncnc32)[C@H](O)[C@@H]1OP(=O)(O)O)[C@@H](O)C(=O)NCCC(=O)NCCSC(=O)CC(=O)O", "note": "[malonyl-CoA]", "values": [
      {"measurement": "LC-MS of products (olivetol, PDAL, HTAL)", "value": "A major product generated by TKS with malonyl‐CoA and hexanoyl‐CoA was identified as olivetol"}
    ]}
  ]
}
